# According to patent US5917057A, “N-hydroxy-dibenz[b,e]oxepinalkylamines, n-hydroxy-dibenz[b,e]oxepinalkanoic acid amides and related heterocyclic analogues” (Hoechst Marion Roussel, Inc., priority 1998, dated 1999):
# Columns and labels:
# [1] = tested on: naja naja (snake venom) phospholipase A2 (PLA2)-induced paw edema; assay: Phospholipase A2-Induced Paw Edema (PIPE); format: in vivo, male Wistar rats; conditions: subplantar; for PIPE 0.1M: 0.1 M test compound injected with PLA2 (3 units/100 μl/paw), rat left hindpaw, two hours; for PIPE ED50: standards, rat hindpaw
# Protocol: Phospholipase A2 -Induced Paw Edema (PIPE)
# The ability of compounds to reverse naja naja (snake venom) phospholipase A2 (PLA2)-induced paw edema in male Wistar rats (100-125 gm) was measured. PLA2 (3 units/100 μl dH2 O/paw) alone or with 0.1 M of the test compound was injected in the subplantar region of the rat left hindpaw. Immediately following injection and at two hours post administration, the paw was immersed in a mercury bath, and paw displacement was measured on a recorder via a transducer. The value was then converted to mm Hg. […] Giessler, A. J. et al., "Agents and Actions", Vol. 10, "Trends in Inflammation Research" (1981), p. 195.
# [2] = tested on: mouse ear edema induced by topical application of arachidonic acid; assay: Arachidonic Acid-Induced Mouse Ear Edema (AAEE); format: in vivo, Female Swiss Webster mice; conditions: 1 mg/ear topical, 30 min before arachidonic acid 4 mg/ear; relative to control
# Protocol: Arachidonic Acid-Induced Mouse Ear Edema (AAEE)
# The purpose of this assay was to determine the ability of a topically applied compound to prevent mouse ear edema induced by topical application of arachidonic acid. Female Swiss Webster mice topically received vehicle or test compound (1.0 mg/ear) on both ears (10 μl on outer and inner ears). After 30 minutes, arachidonic acid is applied to the right ear of each mouse of each group in the amount of 4 mg/ear. Vehicle is applied to the left ear of each mouse of each group at a volume of 20 μl/ear. After an additional hour, the mice are sacrificed and a 4 mm plug is taken from each ear and weighed. The difference between the right and left ear plugs was determined for each animal. The antiinflammatory activity of the test compound is expressed as the mean percent change in the ear plug weight of the treated animals relative to the mean percent change in weights of control animals' ear. (Standard: Indomethacin--90% at 1 mg/ear). Young, J. M. et al., Invest. Dermatol., 80, (1983), pp. 48-52.
# [3] = tested on: ear edema induced by topical application of TPA (phorbol 12-myristate acetate); assay: TPA-Induced Ear Edema (TPAEE); format: in vivo, Female Swiss Webster mice; conditions: 10 μg/ear topical; TPA 10 μg/ear; about 5 hours; relative to control
# Protocol: TPA-Induced Ear Edema (TPAEE)
# The purpose of this assay was to determine the ability of a topically applied compound to prevent ear edema induced by topical application of TPA (phorbol 12-myristate acetate). Female Swiss Webster mice topically received TPA (10 μg/ear) on the right ear and vehicle on the left ear. The test compound (10 μg/ear) was applied to both ears. After about 5 hours, the animals are sacrificed and a 4 mm diameter plug is taken from each ear and weighed. The difference between the right and left ear plug weights for each animal was determined. The antiinflammatory activity of the test compound is expressed as the mean percent change in ear plug weight of the treated animals compared to the mean percent change in the plug weight of the control animals. (Standard: Indomethacin:--86% at 1 mg/ear). Young, J. M. et al., J. Invest. Dermatol., 80 (1983), pp. 48-52.
# [4] = molecular target: T1, 5-lipoxygenase (Rattus norvegicus, UniProt P12527); assay: In Vitro 5-Lipoxygenase Assay (5-HETE); format: biochemical; conditions: RBL-1 cell-free supernatant, 10 μM arachidonic acid, 37° C.
# T1 construct: cell-free 5-lipoxygenase enzyme obtained from rat basophilic leukemia (RBL-1) cells; endogenous in cells; host or cells: RBL-1 rat basophilic leukemia cells, cell-free supernatant of sonicated cells
# T1 sequence (P12527 1-673): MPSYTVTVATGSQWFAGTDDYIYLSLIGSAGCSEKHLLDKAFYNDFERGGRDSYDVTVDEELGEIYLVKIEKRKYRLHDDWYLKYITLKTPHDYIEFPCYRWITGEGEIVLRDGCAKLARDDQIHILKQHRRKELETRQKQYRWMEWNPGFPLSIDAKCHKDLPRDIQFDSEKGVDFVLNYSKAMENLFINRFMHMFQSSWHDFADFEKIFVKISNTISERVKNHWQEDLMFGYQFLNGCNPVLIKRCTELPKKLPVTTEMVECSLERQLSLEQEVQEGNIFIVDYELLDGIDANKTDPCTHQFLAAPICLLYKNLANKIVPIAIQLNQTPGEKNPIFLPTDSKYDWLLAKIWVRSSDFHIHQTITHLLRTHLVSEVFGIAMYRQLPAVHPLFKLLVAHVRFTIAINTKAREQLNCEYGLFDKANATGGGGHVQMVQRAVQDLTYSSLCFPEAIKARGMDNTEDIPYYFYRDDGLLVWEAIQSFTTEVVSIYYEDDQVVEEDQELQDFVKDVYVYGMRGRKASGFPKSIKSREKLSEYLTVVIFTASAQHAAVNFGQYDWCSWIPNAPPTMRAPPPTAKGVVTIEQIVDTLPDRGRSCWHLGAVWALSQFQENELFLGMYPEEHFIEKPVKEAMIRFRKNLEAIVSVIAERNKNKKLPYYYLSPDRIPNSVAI
# Protocol: The ability of a compound to reduce 5-HETE production by cell-free 5-lipoxygenase enzyme obtained from rat basophilic leukemia (RBL-1) cells was measured by a modified procedure of Cochran et al. [Biochem. Biophys. Res. Commun., 161, 1327 (1989)]. RBL-1 cell-free supernatants were prepared by a modification of the method of Jakschik et al., [Prostaglandins, 25, 767 (1983)]. Cells (1×10^9) were collected by centrifugation (22°) and washed at […] with 50 mM phosphate buffer at 5×10^7 cells/ml. Cells were lysed on ice for 45 seconds with a Teckmar sonic disrupter. The homogenate was centrifuged (4° C) for 25 minutes and the supernatant (5 μg protein/μl) was decanted and stored at -80° C. A 1% dimethylsulfoxide (DMSO) vehicle (DMSO in deionized water) was utilized at various concentrations of the test compound. Duplicate reactions were run in 35mM buffer in the presence of 5 μM ATP, 50 μM CaCl2 and 10 μM arachidonic acid at 37° C. The reaction was terminated with 10 μl 0.3 citrate buffer and diluted with BGGE buffer (0.01M phosphate, 0.1% bovine gamma globulin, pH 8.5) containing 114 μM BHT with ice bath cooling. 5-Hydroxyeicosatetraenoic acid (5-HETE) levels were quantitated by radioimmunoassay according to standard procedures.
# [5] = tested on: cyclooxygenase metabolite (PGE2) formation in cultured 3T3 mouse fibroblasts (CCL92-3T3); assay: In Vitro Cyclooxygenase Assay (PGE2); format: cell-based; conditions: Fibroblast, 24 hours; for IC50: radioimmunoassay
# Protocol: The ability of a compound to reduce cyclooxygenase metabolite formation in cultured 3T3 mouse fibroblasts (CCL92-3T3) was measured by radioimmunoassay of prostaglandin E2 (PGE2) levels in the culture media. The 3T3 cells were maintained in complete Dulbecco's Modified Eagles Medium (DMEM) containing 10% calf serum, 2 mM L-glutamine and 5000 units/ml of penicillin/streptomycin. After seeding in 24 mm tissue culture dishes at […], the cells were cultured for 24 hours. Media was removed by aspiration and replaced with DMEM (1 ml/well, 4 wells/treatment) containing test compound, which was previously dissolved in ethanol, or vehicle at various concentrations. The cells were then incubated for 24 hours and PGE2 levels in the media were quantitated by radioimmunoassay according to established procedure (Lingren et al., FEBS Lett., 48, 22). The mean value from duplicate determinations was utilized to assess the % change from control values for each treatment group.
# [6] = tested on: phenyl-para-quinone induced writhing; assay: phenyl-para-benzoquinone writhing assay in mice (analgesia); format: in vivo; conditions: at 20 mg/kg
# Text: The compounds of the present invention are also useful as analgesic agents due to their ability to alleviate pain in mammals. […] Exptl. Biol. Med., 95, 729 (1957)].
Structure (SMILES),PIPE 0.1M [1],AAEE % Change [2] [%],TPAEE percent change [3] [%],IC50 [4] [nM],IC50 [5] [nM],% Inhibition of Writhing [6] [%],PIPE ED50 [1] [M],"inhibition at 1 µM ([5]; @1 μM, read-out: PGE2 % change) [%]"
"CN(O)CCc1ccc2c(c1)C(=O)c1ccccc1CO2 [2-(6,11-Dihydro-11-oxodibenz[b,e]oxepin-2-yl)-N-hydroxy-N-methyl-ethylamine]",-70,-46,-50,240,100,,,
"CCN(O)CCc1ccc2c(c1)Cc1ccccc1CO2 [2-(6,11-Dihydrodibenz[b,e]oxepin-2-yl)-N-ethyl-N-hydroxyethylamine]",,-50,-84,280,,,,
"O=C1c2ccccc2COc2ccc(CCC(=O)N(O)C3CCCCC3)cc21 [3-(6,11-Dihydro-11-oxodibenz[b,e]oxepin-2-yl)-N-cyclohexyl-N-hydroxypropanamide]",,,,,,76,,
"CN(O)C(=O)CCc1ccc2c(c1)C(=O)c1ccccc1CO2 [3-(6,11-Dihydro-11-oxodibenz[b,e]oxepin-2-yl)-N-hydroxy-N-methylpropanamide]",-46,-63,-71,50,780,,,
"CN(O)C(=O)CCc1ccc2c(c1)Cc1ccccc1CO2 [3-(6,11-Dihydro-dibenz[b,e]oxepin-2-yl)-N-hydroxy-N-methylpropanamide]",,-67,,80,1000,,,
"C[C@]12CCC(=O)C=C1CC[C@@H]1[C@@H]2[C@@H](O)C[C@@]2(C)[C@H]1CC[C@]2(O)C(=O)CO [Hydrocortisone, reference compound]",,,,,,,0.46,
"CC(C)Cc1ccc(C(C)C(=O)O)cc1 (centres unmarked) [Ibuprofen, reference compound]",,,,,22,,,
"O=C1c2ccccc2COc2ccc(CC(=O)N(O)C3CCCCC3)cc21 [N-Cyclohexyl-2-(6,11-dihydro-11-oxodibenz[b,e]oxepin-2-yl)-N-hydroxyacetamide]",-85,-29,-52,500,,68,,17
"CCN(CC)CCCC(C)Nc1c2ccc(Cl)cc2nc2ccc(OC)cc12 (centres unmarked) [Quinacrine, reference compound]",,,,,,,0.1,
